# According to PMC3950514 (mBio, 2014):
# Experiments:
# [1] = molecular target: CnCam1 with human calcineurin (Cryptococcus neoformans, UniProt J9VTH9); experiment: malachite green phosphate release from RII phosphopeptide by human calcineurin; assay type: biochemical
# [2] = molecular target: C. neoformans calmodulin (Cam1) (C. neoformans); experiment: pull-down
# Chain of green fluorescent protein (GFP)-tagged C. neoformans calcineurin (Cna1-GFP) (O42773 whole entry): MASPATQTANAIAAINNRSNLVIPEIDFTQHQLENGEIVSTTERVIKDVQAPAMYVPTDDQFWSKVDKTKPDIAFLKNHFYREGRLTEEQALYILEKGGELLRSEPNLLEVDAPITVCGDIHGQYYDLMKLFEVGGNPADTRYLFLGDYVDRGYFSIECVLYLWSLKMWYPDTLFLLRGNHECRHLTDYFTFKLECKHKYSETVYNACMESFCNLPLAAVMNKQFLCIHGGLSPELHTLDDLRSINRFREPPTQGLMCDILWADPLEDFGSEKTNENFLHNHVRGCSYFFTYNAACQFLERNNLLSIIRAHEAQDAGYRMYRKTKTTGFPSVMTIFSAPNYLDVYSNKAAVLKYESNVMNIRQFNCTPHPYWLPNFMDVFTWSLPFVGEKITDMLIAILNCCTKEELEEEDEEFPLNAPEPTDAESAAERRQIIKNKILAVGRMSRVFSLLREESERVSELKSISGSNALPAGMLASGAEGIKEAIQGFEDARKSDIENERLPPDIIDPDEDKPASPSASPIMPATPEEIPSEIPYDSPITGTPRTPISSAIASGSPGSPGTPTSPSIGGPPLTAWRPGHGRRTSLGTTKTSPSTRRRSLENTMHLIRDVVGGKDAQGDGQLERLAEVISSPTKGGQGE
Compound,IC50 [1],percent reduction of the bound amount with toremifene (20 µg/ml) against DMSO [2]
"CN(C)CCOc1ccc(/C(=C(/CCCl)c2ccccc2)c2ccccc2)cc1 [TOR, toremifene]",61.6 µM,
green fluorescent protein (GFP)-tagged C. neoformans calcineurin (Cna1-GFP) (from UniProt O42773 1-639) (enzyme),,45%
